According to patent US8481531B2, “Bicyclic heterocyclyl derivatives as FGFR kinase inhibitors for therapeutic use” (Astex Therapeutics Ltd, priority 2009, dated 2013):
pIC50: −log10 of the molar value.

How the values were obtained:
VEGFR2 = biological target: T1, VEGFR2 (Homo sapiens, UniProt P35968); assay: VEGFR2 in vitro kinase inhibitory activity assay (TRF); format: biochemical; conditions: 0.5 μM ATP, 1 hour; read-out: VEGFR2 IC50(μM) or % I
T1 construct: purchased Upstate

[1] = tested on: parental wild-type Ba/F3 cells; assay: Ba/F3 (WT) cell proliferation assay (Alamar Blue); format: cell-based; conditions: BaF3, 72 hours, read-out: BaF3 WT prolif; for pIC50: with mouse IL-3
Outline: (§1)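 Ba/F3-TEL-FGFR3 cells (5×10^3/well, G418) and parental Ba/F3 (2.5×10^3/well, 2 ng/ml mouse IL-3) in RPMI/10% FBS, plated overnight, then compound for 72 h at 0.1% DMSO final. Alamar Blue 4-6 h, fluorescence 535/590 nm; IC50 where inhibition high.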

FGFR3 = biological target: T2, FGFR3 (Homo sapiens, UniProt P22607); assay: FGFR3 in vitro kinase inhibitory activity assay (TRF); format: biochemical; conditions: 8 μM ATP, 3 hours; read-out: FGFR3 IC50(μM) or % I
T2 construct: purchased Upstate

Ba/F3-TEL-FGFR3 cells = biological target: T3, Ba/F3-TEL-FGFR3 cells (Homo sapiens, UniProt P22607); assay: Ba/F3-TEL-FGFR3 cell proliferation assay (Alamar Blue); format: cell-based; conditions: 72 hours; for GI50: read-out: BaF3-TEL-FGFR3 prolif
T3 construct: fused on or other part: P41212 (Transcription factor ETV6)
Outline: as §1

T1 sequence (P35968 20-1356): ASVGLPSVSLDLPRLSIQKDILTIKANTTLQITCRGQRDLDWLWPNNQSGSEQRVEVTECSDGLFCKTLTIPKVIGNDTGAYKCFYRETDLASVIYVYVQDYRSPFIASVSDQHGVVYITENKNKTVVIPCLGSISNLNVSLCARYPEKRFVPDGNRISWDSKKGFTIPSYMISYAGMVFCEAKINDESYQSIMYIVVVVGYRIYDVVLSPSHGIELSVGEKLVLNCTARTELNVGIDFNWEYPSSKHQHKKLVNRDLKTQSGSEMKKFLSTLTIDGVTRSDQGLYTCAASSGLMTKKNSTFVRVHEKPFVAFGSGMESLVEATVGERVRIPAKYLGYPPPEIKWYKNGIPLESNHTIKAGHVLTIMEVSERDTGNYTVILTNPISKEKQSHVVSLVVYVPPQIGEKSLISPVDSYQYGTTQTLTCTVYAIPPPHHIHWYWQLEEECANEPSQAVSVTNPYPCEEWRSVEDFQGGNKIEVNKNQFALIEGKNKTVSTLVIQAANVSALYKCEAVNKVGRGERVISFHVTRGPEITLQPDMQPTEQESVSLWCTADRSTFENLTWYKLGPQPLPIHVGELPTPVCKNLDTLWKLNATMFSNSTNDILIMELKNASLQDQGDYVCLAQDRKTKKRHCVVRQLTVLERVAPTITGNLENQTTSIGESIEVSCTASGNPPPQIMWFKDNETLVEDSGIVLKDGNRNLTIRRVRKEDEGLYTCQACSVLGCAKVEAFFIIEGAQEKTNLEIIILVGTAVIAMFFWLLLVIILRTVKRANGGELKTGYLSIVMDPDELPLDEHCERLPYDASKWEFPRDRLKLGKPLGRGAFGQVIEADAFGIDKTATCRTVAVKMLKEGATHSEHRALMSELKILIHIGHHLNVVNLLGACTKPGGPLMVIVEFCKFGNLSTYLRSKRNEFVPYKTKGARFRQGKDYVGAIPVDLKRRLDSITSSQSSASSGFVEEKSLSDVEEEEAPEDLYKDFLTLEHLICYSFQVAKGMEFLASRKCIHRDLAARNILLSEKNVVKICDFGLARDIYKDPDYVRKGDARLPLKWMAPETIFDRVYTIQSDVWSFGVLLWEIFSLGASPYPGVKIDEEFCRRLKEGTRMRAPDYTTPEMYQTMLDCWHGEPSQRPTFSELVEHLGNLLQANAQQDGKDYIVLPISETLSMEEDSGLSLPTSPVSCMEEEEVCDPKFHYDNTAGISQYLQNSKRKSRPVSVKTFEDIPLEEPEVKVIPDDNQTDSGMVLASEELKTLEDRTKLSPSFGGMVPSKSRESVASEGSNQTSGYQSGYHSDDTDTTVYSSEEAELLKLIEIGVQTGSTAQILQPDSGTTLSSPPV
T2 sequence (P22607 23-806): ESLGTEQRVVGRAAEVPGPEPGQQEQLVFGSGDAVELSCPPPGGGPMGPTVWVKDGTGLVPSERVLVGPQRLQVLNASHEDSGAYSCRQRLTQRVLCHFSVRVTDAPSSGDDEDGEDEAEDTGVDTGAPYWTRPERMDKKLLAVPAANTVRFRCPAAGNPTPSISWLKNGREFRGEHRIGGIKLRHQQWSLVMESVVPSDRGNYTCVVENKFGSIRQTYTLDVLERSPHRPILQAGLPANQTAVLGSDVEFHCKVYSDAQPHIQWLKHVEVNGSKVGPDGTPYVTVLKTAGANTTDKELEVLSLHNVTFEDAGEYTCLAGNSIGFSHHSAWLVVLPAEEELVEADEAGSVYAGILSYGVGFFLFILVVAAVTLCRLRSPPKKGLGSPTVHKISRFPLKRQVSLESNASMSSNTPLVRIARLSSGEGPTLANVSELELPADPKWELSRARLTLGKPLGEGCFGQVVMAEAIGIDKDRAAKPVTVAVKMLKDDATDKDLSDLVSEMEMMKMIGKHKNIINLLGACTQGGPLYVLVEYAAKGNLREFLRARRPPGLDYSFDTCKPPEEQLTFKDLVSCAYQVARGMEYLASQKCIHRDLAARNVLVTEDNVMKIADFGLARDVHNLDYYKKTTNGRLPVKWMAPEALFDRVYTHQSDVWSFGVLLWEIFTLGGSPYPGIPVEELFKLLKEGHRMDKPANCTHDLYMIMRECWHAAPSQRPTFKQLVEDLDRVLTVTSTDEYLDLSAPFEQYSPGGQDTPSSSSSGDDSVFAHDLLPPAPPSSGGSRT
T3 sequence (P22607 whole entry, change not shown, the tested form may be a part): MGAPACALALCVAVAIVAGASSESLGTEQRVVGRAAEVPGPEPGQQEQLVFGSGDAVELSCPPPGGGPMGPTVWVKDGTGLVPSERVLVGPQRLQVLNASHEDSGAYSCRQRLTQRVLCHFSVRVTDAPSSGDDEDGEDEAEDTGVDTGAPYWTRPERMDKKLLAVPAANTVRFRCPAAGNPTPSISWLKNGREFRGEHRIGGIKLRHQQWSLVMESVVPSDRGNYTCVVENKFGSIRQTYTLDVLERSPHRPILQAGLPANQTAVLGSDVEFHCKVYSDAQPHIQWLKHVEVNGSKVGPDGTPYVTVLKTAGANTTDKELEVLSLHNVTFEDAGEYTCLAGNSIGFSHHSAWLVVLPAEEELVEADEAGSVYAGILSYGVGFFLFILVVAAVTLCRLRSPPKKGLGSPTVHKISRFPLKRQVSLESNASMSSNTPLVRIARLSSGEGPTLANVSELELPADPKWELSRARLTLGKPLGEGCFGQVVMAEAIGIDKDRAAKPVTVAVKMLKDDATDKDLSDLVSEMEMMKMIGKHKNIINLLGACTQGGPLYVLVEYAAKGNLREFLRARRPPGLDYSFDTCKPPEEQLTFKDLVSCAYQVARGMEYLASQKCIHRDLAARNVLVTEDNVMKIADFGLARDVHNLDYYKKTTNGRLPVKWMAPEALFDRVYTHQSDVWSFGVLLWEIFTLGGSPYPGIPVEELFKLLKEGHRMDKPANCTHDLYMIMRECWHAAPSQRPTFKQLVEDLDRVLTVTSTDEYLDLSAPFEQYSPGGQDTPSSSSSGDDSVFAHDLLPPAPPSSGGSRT

Row | Structure (SMILES) | IC50 (VEGFR2) [µM] | melting point [°C] | IC50 (FGFR3) [µM] | GI50 (Ba/F3-TEL-FGFR3 cells) [nM] | BaF3-TEL-FGFR3 prolif (μM) (Ba/F3-TEL-FGFR3 cells; % at 1.00 μM) [% at] | pIC50 [1] | inhibition at 10 µM ([1]; Mus musculus) [%] | inhibition at 1 µM ([1]; Mus musculus, % at 1.00 μM) [%]
1 | C/C(=N\O)c1ccn2c(-c3cccc(NC(=O)NCC(F)(F)F)c3)cnc2c1 [Compound 1-21, 1-[3-(7-{1-Hydroxyimino-ethyl}-imidazo[1,2-a]pyridin-3-yl)-phenyl]-3-(2,2,2-trifluoro-ethyl)-urea] | 0.03 |  | 0.0019 | 46 |  |  | 17 | 
2 | N=C(N)Nc1nc(CON=Cc2ccn3c(-c4cccc(NC(=O)NCC(F)(F)F)c4)cnc3c2)cs1 [Compound 1-19, 1-(3-{7-[(2-Guanidino-thiazol-4-ylmethoxyimino)-methyl]-imidazo[1,2-a]pyridin-3-yl}-phenyl)-3-(2,2,2-trifluoro-ethyl)-urea] | 0.67 |  | 0.023 | 2400 |  | 5.28 |  | 
3 | N#CCCN1CCN(CCCON=Cc2ccn3c(-c4cccc(NC(=O)NCC(F)(F)F)c4)cnc3c2)CC1 [Compound 1-60, 1-{3-[7-({3-[4-(2-Cyano-ethyl)-piperazin-1-yl]-propoxyimino}-methyl)-imidazo[1,2-a]pyridin-3-yl]-phenyl}-3-(2,2,2-trifluoro-ethyl)-urea] | 0.56 |  | 0.022 |  | 85.0 |  |  | 0

More lines, in order of falling IC50 (VEGFR2), values ahead:

Row | IC50 (VEGFR2) [µM] | melting point [°C] | IC50 (FGFR3) [µM] | GI50 (Ba/F3-TEL-FGFR3 cells) [nM] | BaF3-TEL-FGFR3 prolif (μM) (Ba/F3-TEL-FGFR3 cells; % at 1.00 μM) [% at] | Structure (SMILES) | pIC50 [1] | inhibition at 10 µM ([1]; Mus musculus) [%] | inhibition at 1 µM ([1]; Mus musculus, % at 1.00 μM) [%]
4 | 1.4 | 222 to 223 |  |  |  | CC(C)Oc1cc(NC(=O)NCC(F)(F)F)cc(-c2cnc3cc(/C(=N/O)C4CC4)ccn23)c1 [Compound 1-66, 1-[3-(7-{Cyclopropyl-[(E)-hydroxyimino]-methyl}-imidazo[1,2-a]pyridin-3-yl)-5-isopropoxy-phenyl]-3-(2,2,2-trifluoro-ethyl)-urea] |  |  | 
5 | 0.66 |  | 0.013 | 230 |  | Cc1cc(CON=Cc2ccn3c(-c4cccc(NC(=O)NCC(F)(F)F)c4)cnc3c2)no1 [Compound 1-17, 1-(3-{7-[(5-Methyl-isoxazol-3-ylmethoxyimino)-methyl]-imidazo[1,2-a]pyridin-3-yl}-phenyl)-3-(2,2,2-trifluoro-ethyl)-urea] | 5.39 |  | 
6 | 0.068 |  | 0.0031 | 32 |  | C/C(=N\OCCOCCO)c1ccn2c(-c3cccc(NC(=O)NCC(F)(F)F)c3)cnc2c1 [Compound 1-46, 1-[3-(7-{1-[2-(2-Hydroxy-ethoxy)-ethoxyimino]-ethyl}-imidazo[1,2-a]pyridin-3-yl)-phenyl]-3-(2,2,2-trifluoro-ethyl)-urea] |  | 39 | 
